{"source": "patent US10294271B1", "about": "“Compound, composition, and method for detecting caspase activity and/or apoptosis” (Vanderbilt University, priority 2013, dated 2019)", "key": {"DLD-1 cells": {"test_system": "DLD-1 cells", "experiment": "In vitro drug exposure, immunoblot of cleaved PARP and cleaved caspase-3, DLD-1 cells", "type": "cell-based, human", "conditions": "24 h, 0-5000 nM", "method": "(§1) For cell cycle analysis, SW620 and DLD-1 cells were propagated to 50% confluency in 6 cm plates and treated with AZD-1152-hydroxyquinazoline pyrazol anilide (HQPA) (Selleckchem), 0, 10, 100, 1000, or 5000 nM, for 24 or 48 hrs and prepared for flow cytometry as described (2). Propidium iodide (PI)-stained cells were analyzed by flow cytometry (FACStar PLUS, Becton-Dickinson). Data analysis was performed using CellQuest software (Becton-Dickinson) by manually gating to define and quantify sub-G0, G1, S, G2/M, and polyploidy populations. For assay of apoptosis following in vitro AZD-1152-HQPA exposure, SW620 and DLD-1 cells were seeded as sub-confluent monolayer cultures at a density of 1×10^4 per well into 96-well, black wall/bottom plates (BD Biosciences), allowed to adhere for 24 h, and treated with AZD-1152-HQPA, 0, 10, 50, 75, 100, or 1,000 nM, for 24 hrs. Apoptosis was assessed using the Caspase-Glo 3/7 reagent, in accordance with manufacturer's instructions, and analyzed using a Synergy 4 plate reader.\n(§2) After 24 h of drug exposure, in vitro cell samples were collected from 10-cm plates. Medium was removed and cell monolayers washed with 1× phosphate buffered saline (PBS) followed by addition of […] of lysis buffer containing: 7 mL of CelLytic M lysis buffer (Sigma), mini protease inhibitor cocktail (Roche), and […] of phosphatase inhibitor cocktail 1 and 2 (Sigma). […]"}, "SW620 cells": {"test_system": "SW620 cells", "experiment": "In vitro drug exposure, immunoblot of cleaved PARP and cleaved caspase-3, SW620 cells", "type": "cell-based, human", "conditions": "24 h, 0-5000 nM", "method": "as §1, §2"}, "SW620 xenografts": {"test_system": "SW620 xenografts", "experiment": "Cleaved caspase-3 immunohistochemistry, SW620 xenografts", "type": "in vivo, athymic nude mice", "conditions": "after imaging Day 5", "method": "Dual xenograft-bearing mice were sequentially injected with 1×10^7 SW620 and 5×10^6 DLD-1 human CRC cells subcutaneously onto the left or right hind limbs (respectively) of 5- to 6-week old female, athymic nude mice (Harlan Sprague-Dawley). Palpable tumors were observed 2-3 weeks following inoculation. Animals bearing SW620 and DLD-1 xenograft tumors were treated with vehicle or AZD-1152 (25 mg/kg, DMSO) via intraperitoneal injection once daily for five days, analogous to previous work. In vivo PET imaging studies were performed on Day 5, approximately 4-6 h after treatment. Tumor tissues were harvested immediately following conclusion of imaging, fixed for 24 h in 5% buffered formalin, and blocked in paraffin. Immunohistochemistry for cleaved caspase-3 (Cell Signaling, #9664) was carried out as previously described. Tissues were stained using standard H&E methods and reviewed by an expert gastrointestinal pathologist (M. Kay Washington). […] Semi-quantitative IHC analysis was performed using the image processing software ImageJ and is further described below. For semi-quantitative analysis of cleaved caspase-3 IHC, the public domain image processing software ImageJ was used to selectively measure the area of positive staining of each cohort through manual threshold manipulation of hue, pixel saturation, and brightness. […]"}, "caspase-3": {"target": "T1, caspase-3 (Homo sapiens, UniProt P42574)", "T1 construct": "purchased BPS Bioscience", "T1 sequence (P42574 29-175 limits assumed)": "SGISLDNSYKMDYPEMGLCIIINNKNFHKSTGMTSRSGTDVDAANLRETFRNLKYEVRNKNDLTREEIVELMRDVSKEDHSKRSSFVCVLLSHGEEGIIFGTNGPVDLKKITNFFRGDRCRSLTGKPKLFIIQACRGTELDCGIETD", "T1 sequence (P42574 176-277 limits assumed)": "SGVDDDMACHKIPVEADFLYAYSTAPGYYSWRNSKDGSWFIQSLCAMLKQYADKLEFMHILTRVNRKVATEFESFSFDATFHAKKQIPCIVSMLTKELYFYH", "experiment": "Enzyme selectivity assay, caspase-3", "type": "biochemical", "conditions": "fluorescence assay kit, 0.0003-10 μM", "method": "(§3) Relative enzyme inhibition of [^19F]FB-VAD-FMK was evaluated against caspase-3/6/7/8 using homogeneous caspase fluorescence assay kits (BPS Bioscience) and compared to parent peptide. Caspase inhibitor dissolved in caspase assay buffer and 1% DMSO (0.0003-10 μM) was combined with the caspase assay substrate and enzyme at room temperature for 30 min in accordance with the manufacturer's instructions. Fluorescence intensity was measured at an excitation of 360 nm and an emission of 460 nm using an Infinite M1000 microplate reader (Tecan)."}, "[1]": {"experiment": "Lipophilicity (log P7.5) by reversed phase HPLC", "type": "physicochemical", "conditions": "for log P7.5: reversed phase HPLC, phosphate buffer pH 7.5, standard curve", "method": "[^19F]FB-VAD-FMK and [^127I]IZ-VAD-FMK were synthesized as described below. VAD-FMK (American Peptide) and Z-VAD-FMK (TOCRIS Bioscience, #2163) were obtained commercially and used without further purification. Relative enzyme selectivity of [^19F]FB-VAD-FMK compared to parent peptide was evaluated as described below. Lipophilicity measurements (Log P7.5) of peptide derivatives were determined analogously to reported methods and described below.\nLipophilicity characterization of compounds (3) and (5), as well as Z-VAD-FMK, was performed through log P7.5 quantification using methodology analogous to those previously reported (1). Using reversed phase HPLC (Phenomenex Luna C18, 5 μm, 100 Å, 4.6×250 mm) and a (85:15) phosphate buffer (2 mM, pH 7.5) isocratic system (1 mL/min), log P7.5 values were calculated using an average of compound retention times from three individual runs and standard curve derived linear regression. The following standards with known log P values were used for curve development: catechol, aniline, benzene, bromobenze, toluene, ethylbenzene, 2-chlorobiphenyl, biphenyl, 1-chloronaphthalene, 1,2,3-trimethylbenzene, 1,2,3,4-tetrachlorobenzene, 1,2,4,5-tetrabromobenzene, and pentachlorobenzene."}, "caspase-8": {"target": "T2, caspase-8 (Homo sapiens, UniProt Q14790)", "T2 construct": "purchased BPS Bioscience", "T2 sequence (Q14790 217-374 limits assumed)": "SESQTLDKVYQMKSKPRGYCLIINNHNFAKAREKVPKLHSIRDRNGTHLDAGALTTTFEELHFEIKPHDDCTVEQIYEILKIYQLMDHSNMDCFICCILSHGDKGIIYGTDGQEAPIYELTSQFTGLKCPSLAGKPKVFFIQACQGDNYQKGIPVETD", "T2 sequence (Q14790 385-479 limits assumed)": "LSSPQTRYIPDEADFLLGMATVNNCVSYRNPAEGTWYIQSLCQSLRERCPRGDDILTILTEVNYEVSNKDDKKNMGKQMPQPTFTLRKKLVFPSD", "experiment": "Enzyme selectivity assay, caspase-8", "type": "biochemical", "conditions": "fluorescence assay kit, 0.0003-10 μM; compared with caspases-3/6/7", "method": "as §3"}, "caspase-6": {"target": "T3, caspase-6 (Homo sapiens, UniProt P55212)", "T3 construct": "purchased BPS Bioscience", "T3 sequence (P55212 24-179 limits assumed)": "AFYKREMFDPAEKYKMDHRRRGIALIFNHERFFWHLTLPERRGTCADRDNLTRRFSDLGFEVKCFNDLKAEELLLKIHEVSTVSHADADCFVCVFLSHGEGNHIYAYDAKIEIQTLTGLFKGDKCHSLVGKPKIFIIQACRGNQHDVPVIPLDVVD", "T3 sequence (P55212 194-293 limits assumed)": "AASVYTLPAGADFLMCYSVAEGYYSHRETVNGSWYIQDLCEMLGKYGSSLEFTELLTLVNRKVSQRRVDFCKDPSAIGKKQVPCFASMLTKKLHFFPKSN", "experiment": "Enzyme selectivity assay, caspase-6", "type": "biochemical", "conditions": "fluorescence assay kit, 0.0003-10 μM", "method": "as §3"}, "caspase-7": {"target": "T4, caspase-7 (Homo sapiens, UniProt P55210)", "T4 construct": "purchased BPS Bioscience", "T4 sequence (P55210 24-198 limits assumed)": "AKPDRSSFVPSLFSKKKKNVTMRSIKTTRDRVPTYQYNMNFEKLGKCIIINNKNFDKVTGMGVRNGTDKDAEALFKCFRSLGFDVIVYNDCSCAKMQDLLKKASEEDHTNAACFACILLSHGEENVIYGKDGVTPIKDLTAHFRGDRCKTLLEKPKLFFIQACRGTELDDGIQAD", "T4 sequence (P55210 207-303 limits assumed)": "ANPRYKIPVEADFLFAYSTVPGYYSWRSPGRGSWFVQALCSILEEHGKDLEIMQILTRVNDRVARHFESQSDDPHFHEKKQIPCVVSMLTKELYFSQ", "experiment": "Enzyme selectivity assay, caspase-7", "type": "biochemical", "conditions": "fluorescence assay kit, 0.0003-10 μM", "method": "as §3"}, "[2]": {"test_system": "caspase-3/7 activity in DiFi cells", "experiment": "Cellular caspase inhibition assay (Caspase-Glo 3/7)", "type": "cell-based", "method": "DiFi cells were propagated in Dulbecco's Modified Eagle's Medium (DMEM, Mediatech) and supplemented with 10% fetal bovine serum (Atlanta Biologicals) and 1 mg/mL gentamycin sulfate (Gibco) in a 95% humidity, 5% CO2, 37° C. atmosphere. Cells were seeded as sub-confluent monolayer cultures at a density of 1×10^4 per well into 96-well, black wall/bottom plates (BD Biosciences) and allowed to adhere for 24 h at 37° C. […] Cell media was then replaced with 1×PBS containing inhibitor (0, 10, 100, 1000, 10000 nM) and incubated at 37° C. for 30 min Inhibition was assessed using Caspase-Glo 3/7 reagent in accordance with the manufacturer's instructions. Luminescence was quantified using a Synergy 4 plate reader."}, "[3]": {"conditions": "in vivo"}, "[4]": {"design": "species or system male C57BL/6 mice", "conditions": "mouse, in vivo, iv", "method": "Studies involving animals were conducted in accordance with federal and institutional guidelines. Biodistribution studies were performed using male C57BL/6 mice. A detailed description of in vitro drug response studies that support the subsequently described animal models and drug therapies is provided below. For all imaging studies, mice were maintained under 2% isofluorane anesthesia in 100% oxygen at 2 L/min and kept warm via a circulating water heating pad for the duration of the PET scan. Small-animal PET imaging was performed using a dedicated Concorde Microsystems Focus 220 microPET scanner (Siemens Preclinical Solutions). Animals were administered 7.4-9.3 MBq of [^18F]FB-VAD-FMK via intravenous injection. Both static and dynamic data sets were acquired. For static scans, animals were allowed free access to food and water during a 20-40 minute uptake period, followed by anesthetization and a 20-minute image acquisition. Analogously, sixty minute dynamic acquisitions for all xenografts were initiated at the time of [^18F]FB-VAD-FMK injection. Radiochemical preparation of [^18F]FB-VAD-FMK (Fig. S3) was performed as described above. The in vivo biodistribution of [^18F]FB-VAD-FMK was evaluated by ex vivo tissue counting at 60 min post-administration and correlative PET imaging up to 75 min post-administration."}}, "data": [{"compound": "CCN(CCO)CCCOc1ccc2c(Nc3cc(CC(=O)Nc4cccc(F)c4)[nH]n3)ncnc2c1", "note": "[AZD-1152-HQPA, AZD-1152-hydroxyquinazoline pyrazol anilide]", "values": [{"measurement": "cleaved PARP and cleaved caspase-3 levels", "setting": "DLD-1 cells", "value": "concentration-dependent increases"}, {"measurement": "cleaved PARP and cleaved caspase-3 levels", "setting": "SW620 cells", "value": "concentration-dependent increases"}]}, {"compound": "CCN(CCCOc1ccc2c(Nc3cc(CC(=O)Nc4cccc(F)c4)n[nH]3)ncnc2c1)CCOP(=O)(O)O", "note": "[AZD-1152]", "values": [{"measurement": "caspase-3 immunoreactivity compared to vehicle", "setting": "SW620 xenografts", "value": "elevated caspase-3 immunoreactivity"}]}, {"compound": "COC(=O)C[C@H](NC(=O)[C@H](C)NC(=O)[C@@H](NC(=O)c1ccc(F)cc1)C(C)C)C(=O)CF", "note": "[[^19F]FB-VAD-FMK]", "values": [{"measurement": "inhibition potency, caspase-3", "setting": "caspase-3", "value": "single micro molar potency"}, {"measurement": "times less lipophilic than Z-VAD-FMK and [^127I]IZ-VAD-FMK", "setting": "[1]; from log P7.5 values", "value": "50-100 times"}, {"measurement": "log P7.5", "setting": "[1]", "value": 1.41}, {"measurement": "inhibition potency, caspase-8", "setting": "caspase-8", "value": "slightly greater potency"}, {"measurement": "inhibition potency, caspase-6", "setting": "caspase-6", "value": "single micro molar potency"}, {"measurement": "inhibition potency, caspase-7", "setting": "caspase-7", "value": "single micro molar potency"}, {"measurement": "inhibition of caspase-3/7 activity", "setting": "[2]; DiFi cells in log-phase growth (untreated)", "value": "nanomolar concentrations"}, {"measurement": "inhibition of caspase-3/7 activity", "setting": "[2]; DiFi cells, apoptosis induced by cetuximab 0.5 μg/mL 24 h", "value": "comparable efficacy to the parent peptide"}]}, {"compound": "Val-Ala-Asp(OMe)-fluoromethylketone [VAD-FMK, American Peptide, reference compound]", "values": [{"measurement": "inhibition potency, caspase-3", "setting": "caspase-3", "value": "single micro molar potency"}, {"measurement": "inhibition potency, caspase-8", "setting": "caspase-8", "value": "slightly greater potency"}, {"measurement": "inhibition potency, caspase-6", "setting": "caspase-6", "value": "single micro molar potency"}, {"measurement": "inhibition potency, caspase-7", "setting": "caspase-7", "value": "single micro molar potency"}]}, {"compound": "[^18F]4-fluorobenzylcarbonyl-Val-Ala-Asp(OMe)-fluoromethylketone [[^18F]FB-VAD-FMK]", "values": [{"measurement": "parent compound in bile and urine samples", "setting": "[3]", "value": "≥ 50", "unit": "%"}, {"measurement": "radioactivity in brain, lung, or bone", "setting": "[4]", "value": "Very little radioactivity"}, {"measurement": "tissue activity in kidneys and liver", "setting": "[4]", "value": "greatest activity"}]}, {"compound": "[^127I]4-iodobenzyloxycarbonyl-Val-Ala-Asp(OMe)-fluoromethylketone [[^127I]IZ-VAD-FMK]", "values": [{"measurement": "log P7.5", "setting": "[1]", "value": 2.38}]}, {"compound": "benzyloxycarbonyl-Val-Ala-Asp(OMe)-fluoromethylketone [Z-VAD-FMK, obtained commercially (TOCRIS Bioscience, #2163), reference compound]", "values": [{"measurement": "log P7.5", "setting": "[1]", "value": 2.20}]}]}
